Patent publication US7220758B2, “Ether substituted imidazopyridines” (3M Innovative Properties Company, priority 2002, dated 2007)
Counter-ions that a name gives are not always drawn.

Structure (SMILES) | melting point [°C]
CCCc1nc2c(N)nc(Cl)c(C)c2n1CCOCCN [Example 121, 1-[2-(2-Aminoethoxy)ethyl]-6-chloro-7-methyl-2-propyl-1H-imidazo[4,5-c]pyridin-4-amine] | 158 to 161
CCCCN(C)C(=O)c1ccc(S(=O)(=O)CCCn2c(CCC)nc3c(N)nc(C)c(C)c32)cc1 [Example 120, 4-[3-(4-Amino-6,7-dimethyl-2-propyl-1H-imidazo[4,5-c]pyridin-1-yl)propane-1-sulfonyl]-N-butyl-N-methylbenzamide] | 127 to 129
Cc1nc(N)c2nc(C)n(CCOCCCc3cccnc3)c2c1C [Example 10, 2,6,7-Trimethyl-1-[2-(3-pyridin-3-ylpropoxy)ethyl]-1H-imidazo[4,5-c]pyridin-4-amine] | 108.6 to 109.5
CCCc1nc2c(N)ncc(Br)c2n1CCOCCN [Example 114, 1-[2-(2-Aminoethoxy)ethyl]-7-bromo-2-propyl-1H-imidazo[4,5-c]pyridin-4-amine] | 114 to 117
CCCCNC(=O)c1ccc(S(=O)(=O)CCCn2c(CCC)nc3c(N)nc(C)c(C)c32)cc1 [Example 119, 4-[3-(4-Amino-6,7-dimethyl-2-propyl-1H-imidazo[4,5-c]pyridin-1-yl)propane-1-sulfonyl]-N-butylbenzamide] | 147 to 149
Cc1nc(N)c2nc(C)n(CCCCCSc3ccccc3)c2c1C [Example 13, 2,6,7-Trimethyl-1-[5-(phenylthio)pentyl]-1H-imidazo[4,5-c]pyridin-4-amine] | 181 to 183
CCCc1nc2c(N)nc(Cl)c(C)c2n1CCOCCNC(=O)c1ccccc1 [Example 125, N-{2-[2-(4-Amino-6-chloro-7-methyl-2-propyl-1H-imidazo[4,5-c]pyridin-4-yl)ethoxy]ethyl}benzamide] | 188 to 189
Cc1nc(N)c2nc(C)n(CCOC/C=C/c3ccccc3)c2c1C [Example 9, 2,6,7-Trimethyl-1-(2-{[(2E)-3-phenylprop-2-enyl]oxy}ethyl)-1H-imidazo[4,5-c]pyridin-4-amine] | 143.7 to 144.8
CCCc1nc2c(N)nc(C)c(C)c2n1CCOCc1ccccc1 [Example 6, 1-[2-(Benzyloxy)ethyl]-6,7-dimethyl-2-propyl-1H-imidazo[4,5-c]pyridin-4-amine] | 99.5 to 100
Cc1nc(N)c2nc(C)n(CCOCc3ccncc3)c2c1C [Example 110, 2,6,7-Trimethyl-1-[2-(pyridin-4-ylmethoxy)ethyl]-1H-imidazo[4,5-c]pyridin-4-amine] | 208 to 210
CCOCc1nc2c(N)nc(C)c(C)c2n1CCOCC#Cc1cncnc1 [Example 111, 2-(Ethoxymethyl)-6,7-dimethyl-1-{2-[(3-pyrimidin-5-ylprop-2-ynyl)oxy]ethyl}-1H-imidazo[4,5-c]pyridin-4-amine] | 122 to 124
CCOCc1nc2c(N)nc(C)c(C)c2n1CCOCc1ccncc1 [Example 109, 2-(Ethoxymethyl)-6,7-dimethyl-1-[2-(pyridin-4-ylmethoxy)ethyl]-1II-imidazo[4,5-c]pyridin-4-amine] | 143 to 145
CCOCc1nc2c(N)nc(C)c(C)c2n1CCOCCCc1cccnc1 [Example 11, 2-(Ethoxymethyl)-6,7-dimethyl-1-[2-(3-pyridin-3-ylpropoxy)ethyl]-1H-imidazo[4,5-c]pyridin-4-amine] | 78 to 78.5
CCCc1nc2c(N)nc(C)c(C)c2n1CCCCCS(=O)(=O)c1ccc(Cl)cc1Cl [Example 95, 1-[5-(2,4-Dichlorobenzenesulfonyl)pentyl]-6,7-dimethyl-2-propyl-1H-imidazo[4,5-c]pyridin-4-amine] | 130 to 131.5
CCCc1nc2c(N)nc(C)c(C)c2n1CCCS(=O)(=O)c1ccc(C(=O)N2CCOCC2)cc1 [Example 101, {4-[3-(4-Amino-6,7-dimethyl-2-propyl-1H-imidazo[4,5-c]pyridin-1-yl)propane-1-sulfonyl]phenyl}morpholin-4-ylmethanone] | 224 to 226
CCCc1nc2c(N)nc(C)c(C)c2n1CCCCCS(=O)(=O)c1ccc(F)cc1 [Example 92, 1-[5-(4-Fluorobenzenesulfonyl)pentyl]-6,7-dimethyl-2-propyl-1H-imidazo[4,5-c]pyridin-4-amine] | 130 to 132
Cc1nc(N)c2nc(C)n(CCOCc3ccccc3)c2c1C [Example 5, 1-[2-(Benzyloxy)ethyl]-2,6,7-trimethyl-1H-imidazo[4,5-c]pyridin-4-amine] | 136.8 to 137.5
CCCc1nc2c(N)nc(C)c(C)c2n1CCCS(=O)(=O)c1ccc(C(=O)OCC)cc1 [Example 99, 4-[3-(4-Amino-6,7-dimethyl-2-propyl-1H-imidazo[4,5-c]pyridin-1-yl)propane-1-sulfonyl]benzoic acid ethyl ester] | 169 to 171
CSCCCCCn1c(C)nc2c(N)nc(C)c(C)c21 [Example 12, 2,6,7-Trimethyl-1-[5-(methylthio)pentyl]-1H-imidazo[4,5-c]pyridin-4-amine] | 121 to 122
CCOCc1nc2c(N)nc(C)c(C)c2n1CCOCCCc1cncnc1 [Example 112, 2-(Ethoxymethyl)-6,7-dimethyl-1-[2-(3-pyrimidin-5-ylpropoxy)ethyl]-1H-imidazo[4,5-c]pyridin-4-amine] | 127 to 129
CCOCc1nc2c(N)nc(C)c(C)c2n1CCOCCCc1ccccc1 (as salt: hydrochloride) [Example 123, 2-Ethoxymethyl-6,7-dimethyl-1-[2-(3-phenylpropoxy)ethyl]-1H-imidazo[4,5-c]pyridin-4-amine hydrochloride] | 128 to 130
Cc1nc(N)c2nc(C)n(CCOCCNC(=O)N3CCOCC3)c2c1C (as salt: salt) [Example 15, N-{2-[2-(4-Amino-2,6,7-trimethyl-1H-imidazo[4,5-c]pyridin-1-yl)ethoxy]ethyl}morpholine-4-carboxamide] | 205 to 207
CCCc1nc2c(N)nc(C)c(C)c2n1CCCCCS(=O)(=O)c1ccccc1 | 134 to 136
CCCc1nc2c(N)nc(C)c(C)c2n1CCCCCS(=O)(=O)c1ccc(F)cc1F [Example 93, 1-[5-(2,4-Difluorobenzenesulfonyl)pentyl]-6,7-dimethyl-2-propyl-1H-imidazo[4,5-c]pyridin-4-amine] | 130 to 132
Cc1nc(N)c2nc(C)n(CCOCC#Cc3ccccc3)c2c1C [Example 7, 2,6,7-Trimethyl-1-{2-[(3-phenylprop-2-ynyl)oxy]ethyl}-1H-imidazo[4,5-c]pyridin-4-amine] | 186.8 to 187.5
CCOCc1nc2c(N)nc(C)c(C)c2n1CCOCCCc1nccs1 [Example 82, 2-(Ethoxymethyl)-6,7-dimethyl-1-{2-[3-(1,3-thiazol-2-yl)propoxy]ethyl}-1H-imidazo[4,5-c]pyridin-4-amine] | 91 to 92

Other lines, results leading:

melting point [°C] | Structure (SMILES)
182 to 184 | CCc1nc2c(N)nc(C)c(C)c2n1CCOCCNC(=O)N1CCOCC1 [Example 103, N-{2-[2-(4-Amino-2-ethyl-6,7-dimethyl-1H-imidazo[4,5-c]pyridin-1-yl)ethoxy]ethyl}morpholine-4-carboxamide]
187 to 189 | CCc1nc2c(N)nc(C)c(C)c2n1CCOCCNC(=O)NC1CCCCC1 [Example 105]
152 to 153 | CCCc1nc2c(N)nc(C)c(C)c2n1CCCCS(C)(=O)=O [Example 89, 1-[4-(Methanesulfonyl)butyl]-6,7-dimethyl-2-propyl-1H-imidazo[4,5-c]pyridin-4-amine]
157 to 159 | CCc1nc2c(N)nc(C)c(C)c2n1CCOCCN1CCCS1(=O)=O [Example 106, 1-{2-[2-(1,1-Dioxidoisothiazolidin-2-yl)ethoxy]ethyl}-2-ethyl-6,7-dimethyl-1H-imidazo[4,5-c]pyridin-4-amine]
199 to 200 | Cc1nc(N)c2nc(C)n(CCCCCS(C)(=O)=O)c2c1C [Example 78, 1-[5-(Methanesulfonyl)pentyl]-2,6,7-trimethyl-1H-imidazo[4,5-c]pyridin-4-amine]
128 to 130 | CCc1nc2c(N)nc(C)c(C)c2n1CCOCCN1CCCC1=O [Example 124, 1-{2-[2-(4-Amino-2-ethyl-6,7-dimethyl-1H-imidazo[4,5-c]pyridin-1-yl)ethoxy]ethyl}pyrrolindin-2-one]
185 to 187 | CCc1nc2c(N)nc(C)c(C)c2n1CCOCCNC(=O)NC(=O)c1ccccc1 [Example 107, N-{2-[2-(4-Amino-2-ethyl-6,7-dimethyl-1H-imidazo[4,5-c]pyridin-1-yl)ethoxy]ethyl}-N′-benzoylurea]
145 to 146 | CCCc1nc2c(N)nc(C)c(C)c2n1CCCCCS(C)(=O)=O [Example 96, 1-[5-(Methanesulfonyl)pentyl]-6,7-dimethyl-2-propyl-1H-imidazo[4,5-c]pyridin-4-amine]
129 to 131 | CCCc1nc2c(N)ncc(Br)c2n1CCOCCNS(C)(=O)=O [Example 113, N-{2-[2-(4-Amino-7-bromo-2-propyl-1H-imidazo[4,5-c]pyridin-1-yl)ethoxy]ethyl}methanesulfonamide]
170 to 172 | CCc1nc2c(N)nc(C)c(C)c2n1CCOCCNC(=O)C1CCCCC1 [Example 104, N-{2-[2-(4-Amino-2-ethyl-6,7-dimethyl-1H-imidazo[4,5-c]pyridin-1-yl)ethoxy]ethyl}cyclohexanecarboxamide]
201 to 203 | CCc1nc2c(N)nc(C)c(C)c2n1CCOCCNC(=O)NS(=O)(=O)c1ccccc1 [Example 108, N-[({2-[2-(4-Amino-2-ethyl-6,7-dimethyl-1H-imidazo[4,5-c]pyridin-1-yl)ethoxy]ethyl}amino)carbonyl]benzenesulfonamide]
145 to 147 | CCc1nc2c(N)nc(C)c(C)c2n1CCOCCNS(C)(=O)=O [Example 102, N-{2-[2-(4-Amino-2-ethyl-6,7-dimethyl-1H-imidazo[4,5-c]pyridin-1-yl)ethoxy]ethyl}methanesulfonamide]
179.5 to 182 | Cc1nc(N)c2nc(C)n(CCOCCNC(=O)C(C)C)c2c1C (as salt: salt) [Example 16, N-{2-[2-(4-Amino-2,6,7-trimethyl-1H-imidazo[4,5-c]pyridin-1-yl)ethoxy]ethyl}-2-methylpropanamide]
